Results: patent US6274557A, “Inhibition of nitric oxide synthase by amino acids and dipeptides” (Northwestern University, priority 1999, dated 2001)
Read-outs that look alike come from different tables or passages of the source. Peptide text beside a SMILES is read from it.

Key:
[1] = tested on: nitric oxide synthases (nNOS, iNOS, eNOS); conditions: literature, cited from earlier work; for isoform selectivity factor: methyl: eNOS and nNOS over iNOS, ethyl: iNOS over nNOS and eNOS
[2] = molecular target: neuronal nitric oxide synthase (nNOS) from bovine brain (Bos taurus, UniProt A0A3Q1M6M2); test: Hemoglobin capture assay of nitric oxide formation, nNOS; conditions: for nNOS/eNOS selectivity: nNOS over eNOS; for time-dependent inhibition of any of the isoforms: nNOS, iNOS and eNOS
Description: (§1) Nitric oxide formation was measured by using the hemoglobin capture assay. […] The production of nitric oxide by eNOS was measured as described. […] All assays were in a final volume of 600 μL and were initiated with enzyme.
(§2) The reversible inhibition of NOS by the dipeptide analogs was studied under initial rate conditions with the hemoglobin assay as described above. […] With various L-arginine and inhibitor concentrations.

[3] = molecular target: T1, recombinant bovine endothelial nitric oxide synthase (eNOS) (Bos taurus, UniProt P29473); test: Hemoglobin capture assay of nitric oxide formation, eNOS; assay type: biochemical; conditions: for selectivity of eNOS over iNOS: Table 2 dipeptides
T1 construct: made in house; host or cells: E. coli
Description: as §1, §2

[4] = molecular target: recombinant murine macrophage nitric oxide synthase (iNOS) (Mus musculus, UniProt P29477); test: Hemoglobin capture assay of nitric oxide formation, iNOS; conditions: for iNOS/eNOS selectivity: Table 2 dipeptides
Description: as §1, §2

[5] = read-out: Ki nNOS, Table 2, Dixon plots
[6] = read-out: Ki iNOS, Table 2, Dixon plots, ^a = uncompetitive inhibition
[7] = N-substituted L-arginines, ratio of the inverse of the Ki values (IC50 for methyl, ethyl)

Chain of neuronal nitric oxide synthase (nNOS) from bovine brain (A0A3Q1M6M2 entry or part of it): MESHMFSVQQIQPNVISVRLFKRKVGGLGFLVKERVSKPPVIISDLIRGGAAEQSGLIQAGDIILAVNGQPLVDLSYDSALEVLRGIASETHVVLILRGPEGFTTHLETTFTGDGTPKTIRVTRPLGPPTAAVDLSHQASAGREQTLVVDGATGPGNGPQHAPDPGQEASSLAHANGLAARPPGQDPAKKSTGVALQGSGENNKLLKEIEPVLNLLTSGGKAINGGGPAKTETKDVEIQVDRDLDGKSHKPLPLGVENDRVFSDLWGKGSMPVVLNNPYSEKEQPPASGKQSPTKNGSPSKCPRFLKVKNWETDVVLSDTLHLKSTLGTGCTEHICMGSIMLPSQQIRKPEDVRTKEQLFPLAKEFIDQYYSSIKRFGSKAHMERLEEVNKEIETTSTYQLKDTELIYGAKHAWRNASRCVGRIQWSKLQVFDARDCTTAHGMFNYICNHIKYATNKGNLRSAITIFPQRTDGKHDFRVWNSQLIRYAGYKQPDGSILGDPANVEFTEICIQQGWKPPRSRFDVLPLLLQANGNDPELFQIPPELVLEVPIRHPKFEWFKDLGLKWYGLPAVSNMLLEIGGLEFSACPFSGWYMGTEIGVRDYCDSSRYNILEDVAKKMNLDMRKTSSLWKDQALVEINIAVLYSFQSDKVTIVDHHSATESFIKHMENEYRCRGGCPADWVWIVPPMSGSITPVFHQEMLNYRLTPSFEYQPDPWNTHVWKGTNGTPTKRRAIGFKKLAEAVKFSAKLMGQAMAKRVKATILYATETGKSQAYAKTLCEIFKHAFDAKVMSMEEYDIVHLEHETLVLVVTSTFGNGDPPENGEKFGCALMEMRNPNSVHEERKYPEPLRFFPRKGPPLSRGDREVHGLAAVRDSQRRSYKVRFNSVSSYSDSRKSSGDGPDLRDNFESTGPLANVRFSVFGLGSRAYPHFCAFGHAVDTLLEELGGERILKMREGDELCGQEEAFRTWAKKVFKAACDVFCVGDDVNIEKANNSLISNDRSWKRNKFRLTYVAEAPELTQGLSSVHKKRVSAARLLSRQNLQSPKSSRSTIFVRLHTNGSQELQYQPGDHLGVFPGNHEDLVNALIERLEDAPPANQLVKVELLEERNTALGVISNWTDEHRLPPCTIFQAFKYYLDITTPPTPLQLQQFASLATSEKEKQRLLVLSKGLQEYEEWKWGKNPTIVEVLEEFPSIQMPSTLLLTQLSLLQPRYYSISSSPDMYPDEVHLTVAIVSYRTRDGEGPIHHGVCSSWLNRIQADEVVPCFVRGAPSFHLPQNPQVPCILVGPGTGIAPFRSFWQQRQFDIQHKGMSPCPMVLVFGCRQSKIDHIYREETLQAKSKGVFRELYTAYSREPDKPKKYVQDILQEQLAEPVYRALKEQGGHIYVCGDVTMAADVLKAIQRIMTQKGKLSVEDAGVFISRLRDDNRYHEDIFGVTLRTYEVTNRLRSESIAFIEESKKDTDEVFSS

CC1CCN=C(N)S1 (stereo not drawn) [2-Amino-5,6-dihydro-6-methyl-4H-1,3-thiazine]
selectivity in favor of iNOS [1]: 10-40 fold

N=C(N)NN [Aminoguanidine]
selectivity for iNOS over eNOS [1]: 500 fold
selectivity for iNOS over nNOS [1]: 50 fold

CC(=N)NCCCC[C@H](N)C(=O)O [L-N^6-(1-Iminoethyl)lysine]
selectivity for iNOS over eNOS [1]: 30 fold
selectivity for iNOS over nNOS [1]: 13 fold

NC(=NCCC[C@H](N)C(=O)O)N[N+](=O)[O-] [N-nitro-L-arginine, N^ω --Nitro-L-arginine, reference compound]
Ki ([2]; read-out: KI (time-dependent inhibition), with nNOS): 9.3 µM
kinact ([2]; with nNOS): 0.132 min⁻¹
selectivity for nNOS over iNOS [1]: about 300 fold

CSC(N)=NCCC[C@H](N)C(=O)O [S-Methyl-L-thiocitrulline]
selectivity for nNOS than eNOS [1]: 10 fold

CCSC(N)=NCCC[C@H](N)C(=O)O [S-ethyl-L-thiocitrulline]
selectivity for nNOS than eNOS [1]: 50 fold

CCSC(=N)N [S-ethylisothiourea]
selectivity in favor of iNOS [1]: 10-40 fold

COC(=O)[C@@H](CCCN=C(N)N[N+](=O)[O-])NC(=O)[C@H](N)Cc1ccccc1 [compound 12, D-Phe-D-Arg^NO2 -OMe] (HELM PEPTIDE1{[dF].[N=C(NCCC[C@@H](N[*:1])C(=O)[*:2])N[N+](=O)[O-]].[CO[*:1]]}$$$$V2.0)
Ki ([3]; Table 2, Dixon plots): 5 µM
selectivity of eNOS over iNOS [3]: 714 fold
nNOS/eNOS selectivity ([2]; Table 2 dipeptides): 2.5
time-dependent inhibition of any of the isoforms [2]: None
Ki [2, 5]: 2 µM
iNOS/eNOS selectivity [4]: 0.0014
Ki [4, 6]: 3600 µM

N=C(NCCC[C@@H](NC(=O)[C@H](N)Cc1ccccc1)C(=O)O)N[N+](=O)[O-] [compound 13, D-Phe-D-Arg^NO2] (HELM PEPTIDE1{[dF].[N=C(NCCC[C@@H](N[*:1])C(=O)O)N[N+](=O)[O-]]}$$$$V2.0)
Ki ([3]; Table 2, Dixon plots): 90 µM
selectivity of eNOS over iNOS [3]: 152 fold
nNOS/iNOS selectivity ([2]; Table 2 dipeptides, in favor of nNOS over iNOS): 800
nNOS/eNOS selectivity ([2]; Table 2 dipeptides): 5.3
time-dependent inhibition of any of the isoforms [2]: None
Ki [2, 5]: 17 µM
iNOS/eNOS selectivity [4]: 0.0066
Ki [4, 6]: 13600 µM

CCNC(=N)NCCC[C@H](N)C(=O)O [ethyl, N^ω -ethyl-L-arginine, reference compound]
IC50 [3]: 9.5 µM
IC50 [2]: 16 µM
Selectivity nNOS/eNOS [2, 7]: 0.6
Selectivity nNOS/iNOS [2, 7]: 0.4
IC50 [4]: 6.1 µM
isoform selectivity factor ([1]; listed as N^ω --ethyl-L-arginine): ~2
isoform selectivity factor ([1]; listed as N^ω -ethyl-L-arginine): about 2

CCCNC(=N)NCCC[C@H](N)C(=O)O [propyl, N^ω -Propyl-L-arginine]
type of reversible inhibition of eNOS ([3]; Cornish-Bowden replots): competitive inhibitor
Ki ([3]; Table 1): 8.5 µM
Ki [2]: 0.057 µM
type of reversible inhibition of nNOS [2]: competitive inhibitor
Ki [4]: 180 µM
type of reversible inhibition of iNOS ([4]; Cornish-Bowden replots): competitive inhibitor
